Results as given in US20240018161A1, “MODULATORS OF CYSTIC FIBROSIS TRANSMEMBRANE CONDUCTANCE REGULATOR” (VERTEX PHARMACEUTICALS INCORPORATED, priority 2020, published 2024).

target: T1, CFTR-mediated short-circuit current in F508del/MF-HBE cells (Homo sapiens, UniProt P13569, DEL508-508); assay: HBE2 assay: Ussing chamber assay of CFTR-mediated short-circuit currents; assay type: cell-based
T1 construct: human bronchial epithelial (HBE) cells derived from CF subjects; endogenous in cells; host or cells: primary human bronchial epithelial cells from CF subjects (F508del/MF-HBE)
Experimental: 1. Ussing Chamber Assay of CFTR-Mediated Short-Circuit Currents
Ussing chamber experiments were performed using human bronchial epithelial (HBE) cells derived from CF subjects heterozygous for F508del and a minimal function CFTR mutation (F508del/MF-HBE) and cultured as previously described (Neuberger T, Burton B, Clark H, Van Goor F Methods Mol Biol 2011:741:39-54). After four days the apical media was removed, and the cells were grown at an air liquid interface for >14 days prior to use.
To isolate the CFTR-mediated short-circuit (ISC) current, F508del/MF-HBE grown on Costar® Snapwell™ cell culture inserts were mounted in an Ussing chamber and the transepithelial ISC was measured under voltage-clamp recording conditions (Vhold=0 mV) at 37° C. The basolateral solution contained (in mM) 145 NaCl, 0.83 K2HPO4, 3.3 KH2PO4, 1.2 MgCl2, 1.2 CaCl2, 10 Glucose, 10 HEPES (pH adjusted to 7.4 with NaOH) and the apical solution contained (in mM) 145 NaGluconate, 1.2 MgCl2, 1.2 CaCl2, 10 glucose, 10 HEPES (pH adjusted to 7.4 with NaOH) and 30 μM amiloride to block the epithelial sodium channel. Forskolin (20 μM) was added to the apical surface to activate CFTR, followed by apical addition of a CFTR inhibitor cocktail consisting of BPO, GlyH-101, and CFTR inhibitor 172 (each at 20 μM final assay concentration) to specifically isolate CFTR currents. The CFTR-mediated ISC (μA/cm^2) for each condition was determined from the peak forskolin response to the steady-state current following inhibition.
2. Identification of Corrector Compounds
The activity of the CFTR corrector compounds on the CFTR-mediated ISC was determined in Ussing chamber studies as described above. The F508del/MF-HBE cell cultures were either incubated with the corrector compounds at a range of concentrations in combination with 44 nM (6R,12R)-17-amino-12-methyl-6,15-bis(trifluoromethyl)-13,19-dioxa-3,4,18-triazatricyclo[12.3.1.12,5]nonadeca-1(18),2,4,14,16-pentaen-6-ol or were incubated with the corrector compounds at a single fixed concentration of 1 and 3 μM in combination with 44 nM (6R,12R)-17-amino-12-methyl-6,15-bis(trifluoromethyl)-13,19-dioxa-3,4,18-triazatricyclo[12.3.1.12,5]nonadeca-1(18),2,4,14,16-pentaen-6-ol for 18-24 hours at 37° C. and in the presence of […]. The concentration of corrector compounds with 44 nM (6R,12R)-17-amino-12-methyl-6,15-bis(trifluoromethyl)-13,19-dioxa-3,4,18-triazatricyclo[12.3.1.12,5]nonadeca-1(18),2,4,14,16-pentaen-6-ol during the 18-24 hours incubations was kept constant throughout the Ussing chamber measurement of the CFTR-mediated ISC to ensure compounds were present throughout the entire experiment.

T1 sequence (P13569 with tags, fused parts or gaps DEL508-508): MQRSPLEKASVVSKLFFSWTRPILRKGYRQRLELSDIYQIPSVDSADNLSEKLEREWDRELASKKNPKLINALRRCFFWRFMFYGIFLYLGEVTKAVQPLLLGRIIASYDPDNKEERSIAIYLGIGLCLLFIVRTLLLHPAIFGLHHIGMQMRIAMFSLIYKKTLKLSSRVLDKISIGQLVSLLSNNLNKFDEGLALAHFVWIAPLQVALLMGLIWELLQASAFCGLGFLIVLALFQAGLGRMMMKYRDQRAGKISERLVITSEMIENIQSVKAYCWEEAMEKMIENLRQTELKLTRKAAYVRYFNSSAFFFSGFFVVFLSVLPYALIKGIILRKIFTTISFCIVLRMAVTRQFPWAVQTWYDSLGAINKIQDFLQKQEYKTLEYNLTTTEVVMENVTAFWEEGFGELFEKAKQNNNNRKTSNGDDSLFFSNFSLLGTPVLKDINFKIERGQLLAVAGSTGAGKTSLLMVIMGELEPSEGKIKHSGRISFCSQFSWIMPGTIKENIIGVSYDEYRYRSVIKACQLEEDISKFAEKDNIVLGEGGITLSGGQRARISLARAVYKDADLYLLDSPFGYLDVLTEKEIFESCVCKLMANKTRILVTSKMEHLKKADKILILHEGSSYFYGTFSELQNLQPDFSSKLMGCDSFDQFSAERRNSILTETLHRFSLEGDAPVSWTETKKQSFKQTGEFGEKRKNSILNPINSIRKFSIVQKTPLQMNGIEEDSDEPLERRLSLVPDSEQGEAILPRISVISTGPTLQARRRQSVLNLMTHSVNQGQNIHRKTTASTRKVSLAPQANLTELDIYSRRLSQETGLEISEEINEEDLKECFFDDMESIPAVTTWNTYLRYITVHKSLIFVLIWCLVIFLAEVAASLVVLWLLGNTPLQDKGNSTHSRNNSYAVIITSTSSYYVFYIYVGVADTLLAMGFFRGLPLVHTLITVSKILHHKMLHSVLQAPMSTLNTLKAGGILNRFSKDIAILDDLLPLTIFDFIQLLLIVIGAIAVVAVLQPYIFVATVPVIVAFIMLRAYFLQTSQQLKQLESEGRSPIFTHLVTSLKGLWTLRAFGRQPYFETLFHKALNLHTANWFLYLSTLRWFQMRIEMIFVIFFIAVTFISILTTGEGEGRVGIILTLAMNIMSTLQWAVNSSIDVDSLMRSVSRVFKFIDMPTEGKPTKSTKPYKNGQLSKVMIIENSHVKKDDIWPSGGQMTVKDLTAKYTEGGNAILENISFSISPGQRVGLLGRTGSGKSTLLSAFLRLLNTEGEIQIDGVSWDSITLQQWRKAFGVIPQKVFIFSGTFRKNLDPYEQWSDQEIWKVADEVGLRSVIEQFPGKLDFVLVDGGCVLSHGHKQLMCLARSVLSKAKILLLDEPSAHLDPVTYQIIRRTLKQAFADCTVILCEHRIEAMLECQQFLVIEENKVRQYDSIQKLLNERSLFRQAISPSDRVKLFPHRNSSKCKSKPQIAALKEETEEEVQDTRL

Row | Compound | HBE2 Activity at 3 μM (%) | activation at 3 µM
1 | Cc1cccc(C)c1-c1cc2nc(n1)NS(=O)(=O)c1cccc(c1)C(=O)N1[C@@H](c3cncc(N(C)C4CCC4)n3)CCC[C@@H](CC(C)C)[C@H]1CO2 (single isomer, unassigned) [Compound 401, 4-[6-[cyclobutyl(methyl)amino]pyrazin-2-yl]-14-(2,6-dimethylphenyl)-8-isobutyl-18,18-dioxo-11-oxa-18λ^6-thia-3,15,17,24-tetrazatetracyclo[17.3.1.112,16.03,9]tetracosa-1(22),12,14,16(24),19(23),20-hexaen-2-one] | ++ (++ is 30-60%) | –
2 | Cc1cccc(C)c1-c1cc2nc(n1)NS(=O)(=O)c1cccc(c1)C(=O)N1[C@@H](c3cncc(N(C)C4CCC4)n3)CCC[C@@H](CC(C)C)[C@H]1CO2 (single isomer, unassigned) [Compound 402, 4-[6-[Cyclobutyl(methyl)amino]pyrazin-2-yl]-14-(2,6-dimethylphenyl)-8-isobutyl-18,18-dioxo-11-oxa-18λ^6-thia-3,15,17,24-tetrazatetracyclo[17.3.1.112,16.03,9]tetracosa-1(22),12,14,16(24),19(23),20-hexaen-2-one] | +++ (+++ is >60%) | –
3 | Cc1cccc(C)c1-c1cc2nc(n1)NS(=O)(=O)c1cccc(c1)C(=O)N1[C@@H](c3ncc(OC(C)C)cn3)CCC[C@@H](O2)[C@H]1CC(C)C (single isomer, unassigned) [Compound 404, 12-(2,6-dimethylphenyl)-21-isobutyl-20-(5-isopropoxypyrimidin-2-yl)-8,8-dioxo-15-oxa-8λ^6-thia-1,9,11,22-tetrazatetracyclo[14.4.1.13,7.110,14]tricosa-3,5,7(23),10(22),11,13-hexaen-2-one] | ++ (++ is 30-60%) | –
4 | Cc1cccc(C)c1-c1cc2nc(n1)NS(=O)(=O)c1cccc(c1)C(=O)N1[C@@H](c3ncc(OC(C)C)cn3)CCC[C@@H](O2)[C@H]1CC(C)C (single isomer, unassigned) [Compound 405, 12-(2,6-Dimethylphenyl)-21-isobutyl-20-(5-isopropoxypyrimidin-2-yl)-8,8-dioxo-15-oxa-8λ^6-thia-1,9,11,22-tetrazatetracyclo[14.4.1.13,7.110,14]tricosa-3,5,7(23),10(22),11,13-hexaen-2-one] | +++ (+++ is >60%) | –
5 | Cc1cccc(C)c1-c1cc2nc(n1)NS(=O)(=O)c1cccc(c1)C(=O)N1[C@@H](c3ncc(OC(C)C)cn3)CCC[C@@H](O2)[C@H]1CC(C)C (single isomer, unassigned) [Compound 406, 12-(2,6-Dimethylphenyl)-21-isobutyl-20-(5-isopropoxypyrimidin-2-yl)-8,8-dioxo-15-oxa-8λ^6-thia-1,9,11,22-tetrazatetracyclo[14.4.1.13,7.110,14]tricosa-3,5,7(23),10(22),11,13-hexaen-2-one] | +++ (+++ is >60%) | –
6 | Cc1cccc(C)c1-c1cc2nc(n1)NS(=O)(=O)c1cccc(c1)C(=O)N1[C@@H](c3ncc(OC(C)C)cn3)CCC[C@@H](O2)[C@H]1CC(C)C (single isomer, unassigned) [Compound 407, 12-(2,6-dimethylphenyl)-21-isobutyl-20-(5-isopropoxypyrimidin-2-yl)-8,8-dioxo-15-oxa-8λ^6-thia-1,9,11,22-tetrazatetracyclo[14.4.1.13,7.110,14]tricosa-3,5,7(23),10(22),11,13-hexaen-2-one] | + (+ is <30+) | –
7 | Cc1cccc(C)c1-c1cc2nc(n1)NS(=O)(=O)c1cccc(c1)C(=O)N1[C@@H](c3ncc(OC(C)C)cn3)CCC[C@@H](O2)[C@H]1CC(C)C (single isomer, unassigned) [Compound 408, 12-(2,6-Dimethylphenyl)-21-isobutyl-20-(5-isopropoxypyrimidin-2-yl)-8,8-dioxo-15-oxa-8λ^6-thia-1,9,11,22-tetrazatetracyclo[14.4.1.13,7.110,14]tricosa-3,5,7(23),10(22),11,13-hexaen-2-one] | +++ (+++ is >60%) | –
8 | Cc1cccc(C)c1-c1cc2nc(n1)NS(=O)(=O)c1cccc(c1)C(=O)N1[C@@H](c3ncc(OC(C)C)cn3)CCC[C@@H](O2)[C@H]1CC(C)C (single isomer, unassigned) [Compound 409, 12-(2,6-dimethylphenyl)-21-isobutyl-20-(5-isopropoxypyrimidin-2-yl)-8,8-dioxo-15-oxa-8λ^6-thia-1,9,11,22-tetrazatetracyclo[14.4.1.13,7.110,14]tricosa-3,5,7(23),10(22),11,13-hexaen-2-one] | + (+ is <30+) | –
9 | Cc1cccc(C)c1-c1cc2nc(n1)NS(=O)(=O)c1cccc(c1)C(=O)N1[C@@H](c3cncc(N(C)C4CCC4)n3)CCC(O2)[C@H]1CC(C)C (single isomer, unassigned) [Compound 410] | – | > 60%
10 | Cc1cccc(C)c1-c1cc2nc(n1)NS(=O)(=O)c1cccc(c1)C(=O)N1[C@@H](c3cncc(N(C)C4CCC4)n3)CC[C@H](O2)[C@H]1CC(C)C (single isomer, unassigned) [Compound 411] | – | 30 to 60%
11 | Cc1cccc(C)c1-c1cc2nc(n1)NS(=O)(=O)c1cccc(c1)C(=O)N1[C@H](CCC[C@@H]1C(=O)NCc1ccccc1)CO2 [Compound 415] | – | 30 to 60%

Continued, values first:

Row | HBE2 Activity at 3 μM (%) | activation at 3 µM | Compound
12 | – | 30 to 60% | Cc1cccc(C)c1-c1cc2nc(n1)NS(=O)(=O)c1cccc(c1)C(=O)N1C[C@@H](CCCC[C@@H]1c1ncc(OCc3ccccc3)cn1)O2 [Compound 416]
13 | + (+ is <30+) | – | Cc1cccc(C)c1-c1cc2nc(n1)NS(=O)(=O)c1cccc(c1)C(=O)N1C[C@@H](CCCC[C@@H]1c1ncc(OCc3ccccc3)cn1)O2 [Compound 417]
14 | – | < 30% | Cc1cccc(C)c1-c1cc2nc(n1)NS(=O)(=O)c1cccc(c1)C(=O)N1[C@@H](c3ncc(OC(C)C)cn3)CC[C@@H](O2)[C@H]1CC(C)C [Compound 418]
15 | – | 30 to 60% | Cc1cccc(C)c1-c1cc2nc(n1)NS(=O)(=O)c1cccc(c1)C(=O)N1[C@@H](CCCC[C@@H]1c1ncc(OCc3ccccc3)cn1)CO2 [Compound 419]
16 | + (+ is <30+) | – | Cc1cccc(C)c1-c1cc2nc(n1)NS(=O)(=O)c1cccc(c1)C(=O)N1[C@@H](CCCC[C@@H]1c1ncc(OCc3ccccc3)cn1)CO2 [Compound 420]
17 | +++ (+++ is >60%) | – | Cc1cccc(C)c1-c1cc2nc(n1)NS(=O)(=O)c1cccc(c1)C(=O)N1[C@@H](c3ncc(OC(C)C)cn3)CCC[C@@H](O2)[C@H]1CC(C)C [Compound 421]
18 | + (+ is <30+) | – | Cc1cccc(C)c1-c1cc2nc(n1)NS(=O)(=O)c1cccc(c1)C(=O)N1[C@@H](c3ncc(OC(C)C)cn3)CCC[C@@H](O2)[C@H]1CC(C)C [Compound 422]
19 | – | 30 to 60% | Cc1cccc(C)c1-c1cc2nc(n1)NS(=O)(=O)c1cccc(c1)C(=O)N1[C@@H](c3ncc(OC(C)C)cn3)CCC[C@H]1[C@H](CC(C)C)O2 [Compound 423]
20 | – | 30 to 60% | Cc1cccc(C)c1-c1cc2nc(n1)NS(=O)(=O)c1cccc(c1)C(=O)N1[C@@H](c3ncc(OC(C)C)cn3)CCC[C@H]1[C@@H](CC(C)C)O2 [Compound 424]
21 | – | 30 to 60% | Cc1cccc(C)c1-c1cc2nc(n1)NS(=O)(=O)c1cccc(c1)C(=O)N1[C@@H](c3cccc(N(C)C4CC5(CC5)C4)n3)CC[C@H]1[C@@H](CC(C)C)O2 [Compound 425]
22 | – | 30 to 60% | Cc1cccc(C)c1-c1cc2nc(n1)NS(=O)(=O)c1cccc(c1)C(=O)N1[C@@H](c3ncc(OC(C)C)cn3)CC[C@H](O2)[C@H]1CC(C)C [Compound 426]
